Data published in publication PMC10778976, “BAY-3827 and SBI-0206965: Potent AMPK Inhibitors That Paradoxically Increase Thr172 Phosphorylation” (International Journal of Molecular Sciences, 2023).
Values after ≈ are worked out from the molar mass of the structure shown. Where two headings read alike, the source gives them in different places.

Assays:
human α2β2γ1 complex [1] = molecular target: T1, human α2β2γ1 complex (Homo sapiens, UniProt O43741+P54619+P54646); assay: Cell-free kinase assay of bacterially expressed human α2β2γ1 complex phosphorylated on Thr172 by CaMKK2; format: biochemical; conditions: ATP 200 µM; read-out: IC50, inhibition of human α2β2γ1 complex
T1 construct: (His)6
T1 sequence (P54646 whole entry): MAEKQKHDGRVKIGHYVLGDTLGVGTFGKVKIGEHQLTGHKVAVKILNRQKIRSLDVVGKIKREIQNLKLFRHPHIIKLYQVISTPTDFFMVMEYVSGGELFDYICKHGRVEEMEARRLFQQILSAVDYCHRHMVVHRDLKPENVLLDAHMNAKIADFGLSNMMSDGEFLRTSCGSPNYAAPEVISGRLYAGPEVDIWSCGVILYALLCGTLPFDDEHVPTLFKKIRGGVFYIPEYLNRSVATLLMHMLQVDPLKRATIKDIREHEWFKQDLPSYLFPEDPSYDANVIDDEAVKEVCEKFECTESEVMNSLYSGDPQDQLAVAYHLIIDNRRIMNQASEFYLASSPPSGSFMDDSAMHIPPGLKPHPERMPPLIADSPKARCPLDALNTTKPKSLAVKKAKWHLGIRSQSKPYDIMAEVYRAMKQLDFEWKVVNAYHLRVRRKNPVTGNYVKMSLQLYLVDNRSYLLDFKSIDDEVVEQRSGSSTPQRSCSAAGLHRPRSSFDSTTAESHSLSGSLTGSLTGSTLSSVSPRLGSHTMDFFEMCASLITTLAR
T1 sequence (O43741 whole entry partner): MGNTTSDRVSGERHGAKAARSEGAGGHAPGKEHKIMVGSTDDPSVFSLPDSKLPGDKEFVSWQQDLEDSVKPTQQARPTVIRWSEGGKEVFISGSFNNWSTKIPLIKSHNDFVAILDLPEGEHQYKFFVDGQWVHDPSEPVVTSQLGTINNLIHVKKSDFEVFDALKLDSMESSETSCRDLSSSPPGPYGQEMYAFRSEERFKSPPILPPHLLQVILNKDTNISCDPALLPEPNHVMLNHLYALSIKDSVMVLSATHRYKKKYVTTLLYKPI
T1 sequence (P54619 whole entry partner): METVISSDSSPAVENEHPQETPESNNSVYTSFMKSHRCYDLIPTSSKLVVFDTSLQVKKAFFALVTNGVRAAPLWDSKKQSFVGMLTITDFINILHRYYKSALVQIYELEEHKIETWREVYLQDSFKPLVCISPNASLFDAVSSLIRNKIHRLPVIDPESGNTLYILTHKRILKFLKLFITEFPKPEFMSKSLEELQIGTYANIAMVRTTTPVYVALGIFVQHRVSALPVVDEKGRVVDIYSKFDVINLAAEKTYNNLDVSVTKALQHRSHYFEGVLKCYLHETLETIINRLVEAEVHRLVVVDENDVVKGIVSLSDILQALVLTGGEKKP
From the text: (§1) AMPK assays measured the transfer of radioactivity from labelled ATP to a peptide substrate, which was separated from unreacted ATP by binding to P81 paper. This assay was described previously, except that we used [γ-^33P]ATP rather than [γ-^32P]ATP. The peptide substrate was the AMARA peptide in all experiments other than one, which analyzed allosteric activation by AMP (Figure 2A), when, for technical reasons, the SAMS peptide was used instead. With purified preparations of AMPK, it was assayed in solution, but for assays in cell lysates (Figure 3D and Figure 4D), it was first immunoprecipitated using a mixture of anti-α1 and -α2 antibodies and assayed in resuspended immunoprecipitates. After the initial immunoprecipitation of lysate containing 80 µg of protein, the pellets were washed twice with 1 mL of high salt IP buffer (50 mM Tris-HCL, pH 7.4 at 4 °C, 1 M NaCl, 1 mM EDTA, 1 mM EGTA, 50 mM NaF, 5 mM Na pyrophosphate, 1 mM dithiothreitol, 0.1% (v/v) Triton X-100) and twice with 1 mL of low salt IP buffer (as above but only 150 mM NaCl), followed by a final wash in 1 mL of assay buffer (50 mM Na Hepes, pH7.4, 150 mM NaCl, 1 mM dithiothreitol, 0.02% (v/v) Brij-35). After each wash, the pellet was recovered via centrifugation (16,000× g, 3 min) and then resuspended. […]

purified rat liver AMPK = assay: Allosteric activation of rat liver AMPK by AMP with and without BAY-3827; format: biochemical; conditions: BAY-3827 30 nM
From the text: AMPK assays measured the transfer of radioactivity from labelled ATP to a peptide substrate, which was separated from unreacted ATP by binding to P81 paper. This assay was described previously, except that we used [γ-^33P]ATP rather than [γ-^32P]ATP. The peptide substrate was the AMARA peptide in all experiments other than one, which analyzed allosteric activation by AMP (Figure 2A), when, for technical reasons, the SAMS peptide was used instead. With purified preparations of AMPK, it was assayed in solution, but for assays in cell lysates (Figure 3D and Figure 4D), it was first immunoprecipitated using a mixture of anti-α1 and -α2 antibodies and assayed in resuspended immunoprecipitates. After the initial immunoprecipitation of lysate containing 80 µg of protein, the pellets were washed twice with 1 mL of high salt IP buffer (50 mM Tris-HCL, pH 7.4 at 4 °C, 1 M NaCl, 1 mM EDTA, 1 mM EGTA, 50 mM NaF, 5 mM Na pyrophosphate, 1 mM dithiothreitol, 0.1% (v/v) Triton X-100) and twice with 1 mL of low salt IP buffer (as above but only 150 mM NaCl), followed by a final wash in 1 mL of assay buffer (50 mM Na Hepes, pH7.4, 150 mM NaCl, 1 mM dithiothreitol, 0.02% (v/v) Brij-35). After each wash, the pellet was recovered via centrifugation (16,000× g, 3 min) and then resuspended. The final resuspended pellets from each biological replicate were divided into two aliquots (40 µg lysate protein) to provide technical replicates and assayed as above.

[2] = tested on: acetyl-CoA carboxylase (ACC, Ser80) phosphorylation in U2OS cells; assay: ACC phosphorylation in U2OS cells (Western blot); format: cell-based, human; conditions: 30 min inhibitor then 30 min MK-8722 (300 nM), read-out: IC50, inhibition of MK-8722-stimulated ACC phosphorylation
Experimental: T-Rex U2OS cells carrying a Flp Recombinase Target (FRT) site were generated as described previously and grown in Dulbecco’s Modified Eagle’s Medium (DMEM) supplemented with 10% (v/v) FBS and 1% (v/v) penicillin/streptomycin.
Cells were lysed rapidly in situ on culture plates using ice-cold lysis medium containing phosphatase inhibitors, as described previously.
SDS-PAGE was performed using precast NuPAGE Tris-acetate 3–8% gradient polyacrylamide gels in Tris-acetate running buffer when analyzing ACC, GBF1, or Raptor, or NuPAGE Bis-Tris 4–12% gradient polyacrylamide gels in the MOPS buffer system (ThermoFisher Scientific, Waltham, MA, USA) for other proteins (unless stated otherwise). Proteins were transferred to nitrocellulose membranes using the iBlot 2 system (ThermoFisher Scientific). Membranes were enhanced if necessary using SuperSignal Western Blot Enhancer (ThermoFisher Scientific), then blocked for 1 h in Li-Cor Odyssey blocking buffer. The membranes were probed with the appropriate primary antibody ([…]) overnight at 4 °C. Detection was performed using secondary antibody or streptavidin probe (for total ACC) coupled to IR 680 or IR 800 dye, and the membranes were scanned using the LICOR Odyssey IR imager. Protein concentrations were determined by Coomassie Blue binding with bovine serum albumin as a standard. The cellular levels of AMP and ATP were determined via direct perchloric acid extraction from cells, with LC:MS used to estimate the levels of each nucleotide.

Aqueous solubility = format: physicochemical; conditions: aqueous medium (not further specified)
human α2β2γ1 complex [3] = molecular target: T2, human α2β2γ1 complex (Homo sapiens, UniProt P54646); assay: Cell-free kinase assay of bacterially expressed human α2β2γ1 complex phosphorylated on Thr172 by CaMKK2; format: biochemical; conditions: ATP 200 µM; read-out: IC50, inhibition of human α2β2γ1 complex
T2 construct: (His)6
T2 sequence (P54646 whole entry): as the sequence (P54646 whole entry) above
T2 sequence (O43741 whole entry partner): as the sequence (O43741 whole entry partner) above
T2 sequence (P54619 whole entry partner): as the sequence (P54619 whole entry partner) above
From the text: as §1

[4] = design: method as in PMID 35802287; conditions: cited from earlier work

With CCc1ccccc1C(=O)Nc1n[nH]c2c(C)c(F)c(C3C(C#N)=C(C)N(C)C(C)=C3C#N)cc12 [BAY-3827] the IC50 (human α2β2γ1 complex [1]) was 70 nM, the “fold increase of EC50 for AMP” value (purified rat liver AMPK) was 5 fold and the “basal activity (without AMP)” value (purified rat liver AMPK; control without inhibitor 135) was 46 nmol/min/mg. For the same molecule, the IC50 [2] was 270 nM, the IC50 ([2]; Homo sapiens, U2OS, 0.5 h) was 260 nM and the solubility (Aqueous solubility) was 0.3 µg/mL (≈ 0.64 µM).
In the case of CNC(=O)c1ccccc1Oc1nc(Nc2cc(OC)c(OC)c(OC)c2)ncc1Br [SBI-0206965], the IC50 (human α2β2γ1 complex [3]) is listed as 206 nM, the IC50 [2] is listed as 42000 nM and the elimination half-life [4] is listed as “short”. The relative oral availability [4] was “low”.
